From ChEMBL document CHEMBL1255557, “Heterobiaryl and heterobiaryl ether derived M5 positive allosteric modulators” (Bioorg Med Chem Lett, 2010)
pEC50: −log10 of the molar value. Active and inactive are the calls of the source. The rule behind the calls is not given here.

What was measured:
[1] = target: T1, Muscarinic acetylcholine receptor M5 (Homo sapiens, UniProt P08912); experiment: Positive allosteric modulation of muscarinic M5 receptor expressed in CHO cells assessed as effect on acetylcholine-induced intracellular calcium mobilization after 1 hr by FLIPR assay; assay type: functional, cell-based
T1 sequence (P08912 whole entry): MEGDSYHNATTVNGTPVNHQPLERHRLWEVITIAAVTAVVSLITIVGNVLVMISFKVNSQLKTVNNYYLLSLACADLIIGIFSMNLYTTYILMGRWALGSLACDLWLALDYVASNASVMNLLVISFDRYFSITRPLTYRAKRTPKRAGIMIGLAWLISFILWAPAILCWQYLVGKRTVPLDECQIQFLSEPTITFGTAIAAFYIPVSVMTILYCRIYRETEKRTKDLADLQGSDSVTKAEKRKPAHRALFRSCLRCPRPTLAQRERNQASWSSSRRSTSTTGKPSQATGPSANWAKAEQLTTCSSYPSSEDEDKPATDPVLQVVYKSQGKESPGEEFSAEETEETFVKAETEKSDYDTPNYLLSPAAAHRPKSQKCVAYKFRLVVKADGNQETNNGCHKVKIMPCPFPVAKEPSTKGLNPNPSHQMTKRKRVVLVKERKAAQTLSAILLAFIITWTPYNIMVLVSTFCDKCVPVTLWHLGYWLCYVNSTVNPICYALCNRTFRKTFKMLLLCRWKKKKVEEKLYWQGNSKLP

[2] = target: Muscarinic acetylcholine receptor M3 (Homo sapiens) (UniProt P20309); experiment: Positive allosteric modulation of muscarinic M3 receptor expressed in CHO cells assessed as potentiation of acetylcholine-induced intracellular calcium mobilization at 30 uM after 1 hr by FLIPR assay relative to acetylcholine; assay type: functional, cell-based
[3] = target: T2, Muscarinic acetylcholine receptor M2 (Homo sapiens) (UniProt P08172); experiment: Positive allosteric modulation of muscarinic M2 receptor expressed in CHO cells co-expressing Gqi5 assessed as potentiation of acetylcholine-induced intracellular calcium mobilization at 30 uM after 1 hr by FLIPR assay relative to acetylcholine; assay type: functional, cell-based
T2 sequence (whole entry): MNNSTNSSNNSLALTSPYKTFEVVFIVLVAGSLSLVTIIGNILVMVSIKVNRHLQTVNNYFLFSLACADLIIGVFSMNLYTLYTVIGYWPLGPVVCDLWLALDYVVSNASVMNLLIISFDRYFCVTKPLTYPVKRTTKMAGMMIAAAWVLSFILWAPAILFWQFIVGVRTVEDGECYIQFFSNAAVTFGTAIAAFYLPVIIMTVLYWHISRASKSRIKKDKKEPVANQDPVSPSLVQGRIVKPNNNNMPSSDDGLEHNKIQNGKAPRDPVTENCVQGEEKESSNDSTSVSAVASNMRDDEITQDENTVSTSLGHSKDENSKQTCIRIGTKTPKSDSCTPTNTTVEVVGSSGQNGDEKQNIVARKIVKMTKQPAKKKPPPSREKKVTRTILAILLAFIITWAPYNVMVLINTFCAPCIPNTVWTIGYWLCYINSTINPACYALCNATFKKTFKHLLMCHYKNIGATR

[4] = target: T3, Muscarinic acetylcholine receptor M1 (Homo sapiens) (UniProt P11229); experiment: Positive allosteric modulation of muscarinic M1 receptor expressed in CHO cells assessed as potentiation of acetylcholine-induced intracellular calcium mobilization at 30 uM after 1 hr by FLIPR assay relative to acetylcholine; assay type: functional, cell-based
T3 sequence (whole entry): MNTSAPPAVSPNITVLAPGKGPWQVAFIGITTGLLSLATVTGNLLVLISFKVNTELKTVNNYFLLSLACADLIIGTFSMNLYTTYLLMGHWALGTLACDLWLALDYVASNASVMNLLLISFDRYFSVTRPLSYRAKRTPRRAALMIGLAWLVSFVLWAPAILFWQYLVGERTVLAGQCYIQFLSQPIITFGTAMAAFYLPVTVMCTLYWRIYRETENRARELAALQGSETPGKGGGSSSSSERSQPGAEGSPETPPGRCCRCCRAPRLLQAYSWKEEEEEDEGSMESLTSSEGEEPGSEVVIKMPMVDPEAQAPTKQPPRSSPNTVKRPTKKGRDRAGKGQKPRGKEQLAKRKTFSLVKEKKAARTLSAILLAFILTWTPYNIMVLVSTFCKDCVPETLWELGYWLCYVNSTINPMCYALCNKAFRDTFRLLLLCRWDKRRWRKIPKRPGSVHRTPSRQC

[5] = Partition coefficient, log P of the compound; assay type: physicochemical; conditions: octanol/water
[6] = target: T4, Muscarinic acetylcholine receptor M5 (Homo sapiens) (UniProt P08912); experiment: Positive allosteric modulation of muscarinic M5 receptor expressed in CHO cells assessed as potentiation of acetylcholine-induced intracellular calcium mobilization at 30 uM after 1 hr by FLIPR assay relative to acetylcholine; assay type: functional, cell-based
T4 sequence (whole entry): T1 sequence (P08912 whole entry)

[7] = target: T4, Muscarinic acetylcholine receptor M5 (Homo sapiens); experiment: Positive allosteric modulation of muscarinic M5 receptor expressed in CHO cells assessed as effect on acetylcholine-induced intracellular calcium mobilization after 1 hr by FLIPR assay relative to acetylcholine; assay type: functional, cell-based
[8] = target: T5, Muscarinic acetylcholine receptor M4 (Homo sapiens) (UniProt P08173); experiment: Positive allosteric modulation of muscarinic M4 receptor expressed in CHO cells co-expressing Gqi5 assessed as potentiation of acetylcholine-induced intracellular calcium mobilization at 30 uM after 1 hr by FLIPR assay relative to acetylcholine; assay type: functional, cell-based
T5 sequence (whole entry): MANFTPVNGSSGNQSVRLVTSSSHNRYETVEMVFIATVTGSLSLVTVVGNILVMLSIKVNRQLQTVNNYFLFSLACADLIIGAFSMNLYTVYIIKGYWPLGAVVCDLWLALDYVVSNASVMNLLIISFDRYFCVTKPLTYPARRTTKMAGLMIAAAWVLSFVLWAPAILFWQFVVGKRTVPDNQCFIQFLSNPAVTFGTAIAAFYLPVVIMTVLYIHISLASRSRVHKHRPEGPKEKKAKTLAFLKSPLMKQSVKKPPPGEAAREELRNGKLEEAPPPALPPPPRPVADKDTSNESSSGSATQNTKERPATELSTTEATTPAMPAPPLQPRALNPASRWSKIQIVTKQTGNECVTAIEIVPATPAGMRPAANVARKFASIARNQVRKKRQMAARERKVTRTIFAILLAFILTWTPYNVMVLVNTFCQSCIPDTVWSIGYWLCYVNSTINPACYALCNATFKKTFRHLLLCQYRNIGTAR

[9] = target: T6, Muscarinic acetylcholine receptor M2 (Homo sapiens, UniProt P08172); experiment: Positive allosteric modulation of muscarinic M2 receptor expressed in CHO cells co-expressing Gqi5 assessed as effect on acetylcholine-induced intracellular calcium mobilization after 1 hr by FLIPR assay
T6 sequence (P08172 whole entry): T2 sequence (whole entry)

[10] = target: T7, Muscarinic acetylcholine receptor M4 (Homo sapiens, UniProt P08173); experiment: Positive allosteric modulation of muscarinic M4 receptor expressed in CHO cells co-expressing Gqi5 assessed as effect on acetylcholine-induced intracellular calcium mobilization after 1 hr by FLIPR assay; assay type: functional, cell-based
T7 sequence (P08173 whole entry): T5 sequence (whole entry)

[11] = target: Sodium-dependent noradrenaline transporter (Homo sapiens) (UniProt P23975); experiment: Inhibition of NET
[12] = target: Histamine H1 receptor (Homo sapiens) (UniProt P35367); experiment: Inhibition of histamine H1 receptor
Chain of Histamine H1 receptor (Homo sapiens) (P35367 whole entry): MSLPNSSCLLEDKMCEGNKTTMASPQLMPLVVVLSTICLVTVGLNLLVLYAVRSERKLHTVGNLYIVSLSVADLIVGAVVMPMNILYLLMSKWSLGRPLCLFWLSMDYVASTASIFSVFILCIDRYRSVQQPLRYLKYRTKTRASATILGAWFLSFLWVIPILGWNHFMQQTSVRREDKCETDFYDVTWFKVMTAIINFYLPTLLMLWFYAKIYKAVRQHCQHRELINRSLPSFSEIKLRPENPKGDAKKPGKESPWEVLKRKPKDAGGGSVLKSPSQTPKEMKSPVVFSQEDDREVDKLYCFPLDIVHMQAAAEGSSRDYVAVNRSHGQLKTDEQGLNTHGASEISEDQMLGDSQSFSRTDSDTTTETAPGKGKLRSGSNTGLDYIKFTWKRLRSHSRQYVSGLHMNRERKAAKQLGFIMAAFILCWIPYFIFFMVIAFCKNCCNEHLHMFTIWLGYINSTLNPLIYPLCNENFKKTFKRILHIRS

Chain of Muscarinic acetylcholine receptor M3 (Homo sapiens) (P20309 whole entry, looked up): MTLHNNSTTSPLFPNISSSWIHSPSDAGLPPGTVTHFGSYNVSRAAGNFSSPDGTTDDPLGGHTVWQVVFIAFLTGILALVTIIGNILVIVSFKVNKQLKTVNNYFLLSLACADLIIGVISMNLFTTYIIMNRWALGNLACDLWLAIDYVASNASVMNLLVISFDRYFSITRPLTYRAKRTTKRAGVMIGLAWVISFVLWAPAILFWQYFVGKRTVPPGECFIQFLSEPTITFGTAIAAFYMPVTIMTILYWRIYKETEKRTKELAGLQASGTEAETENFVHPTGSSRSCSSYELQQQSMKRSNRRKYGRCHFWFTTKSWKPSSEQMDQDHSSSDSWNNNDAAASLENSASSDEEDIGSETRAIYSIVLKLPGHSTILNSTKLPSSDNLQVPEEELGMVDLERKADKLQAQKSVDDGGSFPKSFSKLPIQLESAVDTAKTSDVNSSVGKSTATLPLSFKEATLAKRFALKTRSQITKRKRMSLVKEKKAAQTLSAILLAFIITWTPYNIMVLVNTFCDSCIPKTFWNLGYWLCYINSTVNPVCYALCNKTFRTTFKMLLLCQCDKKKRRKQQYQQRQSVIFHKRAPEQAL
Chain of Sodium-dependent noradrenaline transporter (Homo sapiens) (P23975 whole entry): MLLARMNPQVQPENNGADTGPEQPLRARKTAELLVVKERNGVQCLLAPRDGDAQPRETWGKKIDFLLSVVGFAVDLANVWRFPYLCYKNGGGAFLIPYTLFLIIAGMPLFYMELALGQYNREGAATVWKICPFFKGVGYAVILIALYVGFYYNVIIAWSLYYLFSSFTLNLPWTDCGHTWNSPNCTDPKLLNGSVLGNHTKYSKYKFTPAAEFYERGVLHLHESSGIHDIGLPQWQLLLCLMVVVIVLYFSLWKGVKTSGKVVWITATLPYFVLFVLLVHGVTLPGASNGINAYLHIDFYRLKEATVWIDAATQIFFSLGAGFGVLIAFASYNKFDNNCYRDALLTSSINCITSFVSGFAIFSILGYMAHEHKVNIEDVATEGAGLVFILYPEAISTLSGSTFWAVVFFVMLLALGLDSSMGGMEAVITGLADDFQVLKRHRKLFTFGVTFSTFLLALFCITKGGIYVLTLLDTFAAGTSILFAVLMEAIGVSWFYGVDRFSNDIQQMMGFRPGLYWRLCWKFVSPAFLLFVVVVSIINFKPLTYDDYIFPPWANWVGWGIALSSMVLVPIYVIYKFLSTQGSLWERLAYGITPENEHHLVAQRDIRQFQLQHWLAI

Row | Compound | pEC50 [1] | Activity [2] | Activity [3] | Activity [4] | logP [5] | fold change (FC) [6] | Emax [7] [%] | Activity [8] | pEC50 [9] | pEC50 [10] | inhibition [11] | inhibition [12]
1 | O=C1C(=O)N(Cc2ccc(-c3ccccc3)nc2)c2ccc(OC(F)(F)F)cc21 | 5.42 | inactive | inactive | inactive | 3.6 | 14 | 76 | inactive |  |  |  | 
2 | O=C1C(=O)N(Cc2ccc(Br)cc2)c2ccccc21 | 5.34 |  |  |  |  |  |  |  | < 4.52 | < 4.52 |  | 
3 | O=C1C(=O)N(Cc2ccc(Oc3cccc(F)n3)cc2)c2ccc(OC(F)(F)F)cc21 | 5.82 | inactive | inactive | inactive |  | 6 | 62 | inactive |  |  | Active | Active
